From article PMC10123561 (Signal Transduction and Targeted Therapy, 2023)
Where “and” joins values, the source holds several entries; their conditions need not be identical. Equal values may be shown once. Where a name gives a salt, the structure may show the parent alone.

Assays:
[1] = test system: SARS-CoV-2 Delta; assay type: cell-based
[2] = test system: SARS-CoV-2 Omicron; assay type: cell-based

| Compound | EC50 [1] | EC50 [2] |
| --- | --- | --- |
| CCC(CC)COC(=O)[C@H](C)N[P@](=O)(OC[C@H]1O[C@@](C#N)(c2ccc3c(N)ncnn23)[C@H](O)[C@@H]1O)Oc1ccccc1 [Remdesivir] | 850 nM and 1110 nM | 1500 ± 200 nM |
| Cc1c(O)cccc1C(=O)N[C@@H](CSc1ccccc1)[C@H](O)CN1C[C@H]2CCCC[C@H]2C[C@H]1C(=O)NC(C)(C)C [nelfinavir, Nelfinavir Mesylate] | 2090 nM and 1760 nM | 2030 nM and 1730 nM |
